Results on 40 molecules are retold here after patent publication US7763656B2, “Use of Acetylamino benzoic acid compounds for nonsense suppression and the treatment of disease” (PTC Therapeutics, Inc., priority 2002, dated 2010).

Broadly, the melting point is the temperature of the solid-liquid transition. For the molecule `Cc1ccc(C(C)C)c(OCC(=O)Nc2cccc(C(=O)O)c2)c1` [Compound 40, 3-[2-(2-Isopropyl-5-methyl-phenoxy)-acetylamino]-benzoic acid], the melting point was in the range of 211 to 213 °C.

In turn, `Cc1ccc(C(C)C)c(OC(C)C(=O)Nc2cccc(C(=O)O)c2)c1` (stereo not shown) [Compound 41, 3-[2-(2-Isopropyl-5-methyl-phenoxy)-propionylamino]-benzoic acid] showed a melting point of 161 to 163 °C.

For `Cc1cccc(OCC(=O)Nc2cccc(C(=O)O)c2)c1` [Compound 42, 3-[2-(5-Methyl-phenoxy)-acetylamino]-benzoic acid], the melting point lay in the range of 200 to 201 °C.

The molecule `CC(C)c1ccccc1OCC(=O)Nc1cccc(C(=O)O)c1` [Compound 43, 3-[2-(2-Isopropyl-phenoxy)-acetylamino]-benzoic acid] gave a melting point of 168 to 170 °C.

`COc1ccc(C(=O)O)cc1NC(=O)COc1cc(C)ccc1C(C)C` [Compound 44, 3-[2-(2-Isopropyl-5-methyl-phenoxy)-acetylamino]-4-methoxy-benzoic acid]: the melting point fell in the range of 253 to 255 °C.

In turn, `Cc1ccc(C(C)C)cc1OCC(=O)Nc1cccc(C(=O)O)c1` [Compound 45, 3-[2-(5-Isopropyl-2-methyl-phenoxy)-acetylamino]-benzoic acid] displayed a melting point of 211 to 213 °C.

As for `Cc1cc(OC(C)C(=O)Nc2cccc(C(=O)O)c2)ccc1C(C)C` (stereo not shown) [Compound 47, 3-[2-(4-Isopropyl-3-methyl-phenoxy)-propionylamino]-benzoic acid], the melting point is 186 to 187 °C.

`Cc1ccc(C(=O)O)cc1NC(=O)COc1ccc(C(C)C)c(C)c1` [Compound 48, 3-{2-(4-Isopropyl-3-methyl-phenoxy)-acetylamino]-4-methyl-benzoic acid]: the melting point fell in the range of 188 to 189 °C.

`O=C(COc1ccc(C(=O)O)cc1)Nc1cccc(C(=O)O)c1` [Compound 50, 3-[2-(4-Carboxy-phenoxy)-acetylamino]-benzoic acid] gave a melting point of 260 to 261 °C.

As for `O=C(COc1ccc2ccccc2c1)Nc1cccc(C(=O)O)c1` [Compound 52, 3-[2-(Naphthalen-2-yloxy)-acetylamino]-benzoic acid], the melting point was in the range of 223 to 224 °C.

On to `O=C(COc1ccc2c(c1)OCO2)Nc1cccc(C(=O)O)c1` [Compound 53, 3-[2-(Benzo[1,3]dioxol-5-yloxy)-acetylamino]-benzoic acid], for which the melting point lay within 191 to 194 °C.

`O=C(COc1ccc(Cl)c(F)c1)Nc1cccc(C(=O)O)c1` [Compound 54, 3-[2-(4-Chloro-3-fluoro-phenoxy)-acetylamino]-benzoic acid] showed a melting point of 242 to 244 °C.

`O=C(COc1ccc(CO)cc1)Nc1cccc(C(=O)O)c1` [Compound 55, 3-[2-(4-Hydroxymethyl-phenoxy)-acetylamino]-benzoic acid]: the melting point fell in the range of 209 to 212 °C.

Molecule `Cc1cc(OCC(=O)Nc2ccc(O)c(C(=O)O)c2)ccc1C(C)C` [Compound 56, 2-Hydroxy-5-[2-(4-isopropyl-3-methyl-phenoxy)-acetylamino] benzoic acid] returned a melting point of 101 to 103 °C.

For the molecule `Cc1cc(OCC(=O)Nc2ccc(Cl)c(C(=O)O)c2)ccc1C(C)C` [Compound 57, 2-Chloro-5-[2-(4-isopropyl-3-methyl-phenoxy)-acetylamino]-benzoic acid], the melting point fell in the range of 174 to 175 °C.

As for `Cc1cc(OCC(=O)Nc2cc(F)c(F)c(C(=O)O)c2F)ccc1C(C)C` [Compound 58, 2,3,6-Trifluoro-5-[2-(4-isopropyl-3-methyl-phenoxy)-acetylamino]-benzoic acid], the melting point lay in the range of 200 to 208 °C.

For the molecule `Cc1cc(OCC(=O)Nc2cccc(C(=O)O)c2C)ccc1C(C)C` [Compound 59, 3-[2-(4-Isopropyl-3-methyl-phenoxy)-acetylamino]-2-methyl-benzoic acid], the melting point was in the range of 148 to 171 °C.

On to `CCOC(=O)/C=C/c1ccc(OCC(=O)Nc2cccc(C(=O)O)c2)cc1` [Compound 60, 3-{2-[4-(2-Ethoxycarbonyl-vinyl)-phenoxy]-acetylamino}-benzoic acid], for which the melting point was in the range of 202 to 203 °C.

On to `O=C(COc1ccc(OCc2ccccc2)cc1)Nc1cccc(C(=O)O)c1` [Compound 61, 3-[2-(4-Benzyloxy-phenoxy)-acetylamino]-benzoic acid], for which the melting point fell in the range of 208 to 210 °C.

`N#Cc1ccc(OCC(=O)Nc2cccc(C(=O)O)c2)cc1` [Compound 62, 3-[2-(4-Cyano-phenoxy)-acetylamino]-benzoic acid] gave a melting point of 210 to 213 °C.

As to `O=C(COc1ccc(Nc2ccc([N+](=O)[O-])cn2)cc1)Nc1cccc(C(=O)O)c1` [Compound 63, 3-{2-[4-(5-Nitro-pyridin-2-ylamino)-phenoxy]-acetylamino}-benzoic acid], the melting point fell in the range of 284 to 285 °C.

`O=C(COc1ccc(NC(=O)c2ccccc2)cc1)Nc1cccc(C(=O)O)c1` [Compound 64, 3-[2-(4-Benzoylamino-phenoxy)-acetylamino]-benzoic acid] showed a melting point of 260 to 262 °C.

As to `O=C(COc1ccc(Nc2ccccc2)cc1)Nc1cccc(C(=O)O)c1` [Compound 65, 3-[2-(4-Phenylamino-phenoxy)-acetylamino]-benzoic acid], the melting point was 214 to 215 °C.

Regarding `O=C(COc1cccc(Nc2ccccc2)c1)Nc1cccc(C(=O)O)c1` [Compound 66, 3-[2-(3-Phenylamino-phenoxy)-acetylamino]-benzoic acid], the melting point was 189 to 191 °C.

`O=C(COc1ccc(Nc2ccc([N+](=O)[O-])cc2[N+](=O)[O-])cc1)Nc1cccc(C(=O)O)c1` [Compound 67, 3-{2-[4-(2,4-Dinitro-phenylamino)-phenoxy]-acetylamino}-benzoic acid] displayed a melting point of 237 to 238 °C.

On to `O=C(COc1ccc(Oc2ccc(C(F)(F)F)cc2)cc1)Nc1cccc(C(=O)O)c1` [Compound 68, 3-{2-[4-(4-Trifluoromethyl-phenoxy)-phenoxy]-acetylamino}-benzoic acid], for which the melting point was in the range of 189 to 190 °C.

The molecule `O=C(COc1ccc(Cc2ccccc2)cc1)Nc1cccc(C(=O)O)c1` [Compound 69, 3-[2-(4-Benzyl-phenoxy)-acetylamino]-benzoic acid] had a melting point of 205 to 209 °C.

As to `O=C(COc1ccc(Oc2ccccc2)cc1)Nc1cccc(C(=O)O)c1` [Compound 70, 3-[2-(4-Phenoxy-phenoxy)-acetylamino]-benzoic acid], the melting point was in the range of 202 to 205 °C.

Molecule `O=C(COc1ccc(CN2C(=O)c3ccccc3C2=O)cc1)Nc1cccc(C(=O)O)c1` [Compound 72] registered a melting point of 238 to 240 °C.

Turning to `O=C(O)c1cccc(N2CCC(Oc3ccc(Cl)cc3)C2=O)c1` (stereo not shown) [Compound 75, 3-[3-(4-Chloro-phenoxy)-2-oxo-pyrrolidin-1-yl]-benzoic acid], the melting point lay in the range of 192 to 193 °C.

`O=C(O)c1cccc(N2CCC(Oc3ccc(Br)cc3)C2=O)c1` (stereo not shown) [Compound 76, 3-[3-(4-Bromo-phenoxy)-2-oxo-pyrrolidin-1-yl]-benzoic acid] displayed a melting point of 196 to 197 °C.

Turning to `O=C(COc1ccc(Cc2nn[nH]n2)cc1)Nc1cccc(C(=O)O)c1` [Compound 78, 3-{2-[4-(2H-Tetrazol-5-ylmethyl)-phenoxy]-acetylamino}-benzoic acid], the melting point was 267 to 268 °C.

`CC(C)c1ccc(COC2CCN(c3cccc(C(=O)O)c3)C2=O)cc1` (stereo not shown) [Compound 79, 3-[3-(4-Isopropyl-benzyloxy)-2-oxo-pyrrolidin-1-yl]-benzoic acid]: the melting point is 170 to 171 °C.

As to `CCc1ccc(OC2CCN(c3cccc(C(=O)O)c3)C2=O)cc1` (stereo not shown) [Compound 83, 3-[3-(4-Ethyl-phenoxy)-2-oxo-pyrrolidin-1-yl]-benzoic acid], the melting point fell in the range of 194 to 195 °C.

`Cc1ccc(OC2CCN(c3cccc(C(=O)O)c3)C2=O)cc1` (stereo not shown) [Compound 84, 3-[3-(4-Methyl-phenoxy)-2-oxo-pyrrolidin-1-yl]-benzoic acid] returned a melting point of 185 to 187 °C.

For the molecule `Cc1c(F)cc(OC2CCN(c3cccc(C(=O)O)c3)C2=O)c(F)c1F` (stereo not shown) [Compound 85, 3-[2-Oxo-3-(2,3,5-trifluoro-4-methyl-phenoxy)-pyrrolidin-1-yl]-benzoic acid], the melting point lay within 190 to 191 °C.

As to `O=C(O)c1cccc(N2CCC(Oc3ccc(OC(F)(F)F)cc3)C2=O)c1` (stereo not shown) [Compound 86, 3-[2-Oxo-3-(4-trifluoromethoxy-phenoxy)-pyrrolidin-1-yl]-benzoic acid], the melting point was 190 to 191 °C.

On to `Cc1cc(OC2CCN(c3cccc(C(=O)O)c3)C2=O)cc(C(C)C)c1` (stereo not shown) [Compound 87, 3-[3-(3-Isopropyl-5-methyl-phenoxy)-2-oxo-pyrrolidin-1-yl]-benzoic acid], for which the melting point lay in the range of 134 to 138 °C.

The molecule `Cc1ccc(OC2CCN(c3cccc(C(=O)O)c3)C2=O)cc1C` (stereo not shown) [Compound 89, 3-[3-(3,4-Dimethyl-phenoxy)-2-oxo-pyrrolidin-1-yl]-benzoic acid] displayed a melting point of 201 to 205 °C.

In turn, `Cc1cc(OCC(=O)Nc2cc(C(=O)O)ccc2Cl)ccc1C(C)C` [Example 4, 4-CHLORO-3-[2-(4-ISOPROPYL-3-METHYL-PHENOXY)-ACETYLAMINO]-BENZOIC ACID] had a melting point of 174 to 175 °C.
